Assay results from US8431524B2, “Peptide antagonist of interleukin-15 activity” (Centro de Ingenieria Genetica y Biotecnologia, priority 2008, dated 2013).
Like-named read-outs stand apart in the source and are kept apart here. Positions of bridges follow the written chain, without caps; N, C: chain ends. Residues, ends and D or L forms follow the SMILES beside them. Chains are numbered I, II in the order given. No end group written: not given here.

Columns and labels:
CTLL-2 cell line = details: for IC50: 72 h; for activity relative to the original peptide of WO2006/029578 (fold): IL-15-dependent proliferation of CTLL-2; for inhibitory effect of the peptide (in words): from the IC50 values of Table 1
Experimental: To evaluate the neutralizing capacity of the peptides of the present invention, serial dilutions of these peptides were carried out in 96-well plates (Costar, USA) in a 25 μL volume of RPMI medium (Gibco) supplemented at 10% with calf fetal serum (Gibco). […]
Incubation was carried out for 72 h at 37° C. and 5% CO2. […] MTT is reduced to red formazan by the mitochondrial dehydrogenase of live cells.

IL-15Rα subunit = IL-15Rα subunit (Homo sapiens, UniProt Q13261); details: IL-15 binding to IL-15Rα; cited from earlier work
Chain of IL-15Rα subunit (Q13261 31-267): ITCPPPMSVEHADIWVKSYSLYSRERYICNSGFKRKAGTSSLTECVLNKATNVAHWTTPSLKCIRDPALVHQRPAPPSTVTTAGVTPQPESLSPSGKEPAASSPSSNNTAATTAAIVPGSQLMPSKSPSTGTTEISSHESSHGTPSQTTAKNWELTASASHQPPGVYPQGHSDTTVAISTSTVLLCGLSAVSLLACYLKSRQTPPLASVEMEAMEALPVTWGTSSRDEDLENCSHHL

human IL-15Rα = human IL-15Rα (Homo sapiens, UniProt Q13261); assay: Competition ELISA, displacement of binding of IL-15 to IL-15Rα
Chain of human IL-15Rα (Q13261 31-205 limits assumed): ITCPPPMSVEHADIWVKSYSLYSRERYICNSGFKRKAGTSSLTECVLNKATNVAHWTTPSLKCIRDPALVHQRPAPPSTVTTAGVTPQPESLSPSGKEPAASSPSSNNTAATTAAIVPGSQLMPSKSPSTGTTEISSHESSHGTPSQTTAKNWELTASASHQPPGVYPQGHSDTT
Experimental: Peptide binding to the IL15-Rα was characterized by ELISA. Briefly, 96-well plates were coated with purified IL-15 in phosphate buffered saline (PBS) and blocked with bovine albumin at 1% in PBS. Dilutions of each peptide were added to the wells and plates were incubated for 1 h at 37° C. The plates were washed with PBS-Tween 20 and incubated with an IL-15Rα-Fc for 1 h at 37° C. Plates were washed again with PBS-Tween 20 and further incubated an anti Fc-human IgG-peroxidase conjugate for 1 h at 37° C. After washing, the antigen-antibody reaction was run by adding the substrate and 3,3′,5,5′-Tetramethylbenzidine (TMB), and O.D. was read at 450 nm.

[1] = system: prostate cancer cell line PC-3; assay: IL-15Rα-induced IL-6 and IL-8 mRNA expression in PC-3 cells (real time RT-PCR); type: cell-based; details: peptide 100 μg/mL, IL15-Rα 1 ng/mL
Experimental: The experiment was carried out in 24-well plates by incubating 1.5×10^6 cells with peptides SEQ ID No. 1 and SEQ ID No. 12 at 100 μg/mL and IL15-Rα (1 ng/mL), and also combinations of IL15-Rα and peptides SEQ ID No. 1 and SEQ ID No. 12.
The RNA was isolated by the TriReagent method (Sigma) and analyzed by measuring the O.D. 260/280 nm ratio and Agarose gel electrophoresis. The real time reverse transcription and polymerase chain reaction were carried out by using the Quantitect Reverse Transcription Kit and QuantiTect SYBR Green PCR (QIAGEN) in a Rotor Gene 6000 equipment.

KiT225 cell line = assay: IL-15-induced proliferation assay of the Kit225 cell line (MTT); type: cell-based, human; details: IL-15 300 pg/mL, serial dilutions of peptide; FIG. 3
Experimental: To evaluate the neutralizing capacity of the peptides of the present invention, serial dilutions of these peptides were carried out in 96-well plates (Costar, USA) in a 25 μL volume of RPMI medium (Gibco) supplemented at 10% with calf fetal serum (Gibco). Previously washed CTLL-2 or KiT225 cells were added at 5×10^3 cells/well and incubated for 30 min, and a saturating amount of 300 pg/mL IL-15 was added per well.
The antagonistic activity of the peptides was also evaluated, by varying the concentration of IL-15 at a fix concentration of 260 μM of each peptide. Incubation was carried out for 72 h at 37° C. and 5% CO2. Proliferation was assessed by using the MTT mitochondrial staining method (Cosman et al., Nature 1984, 312: 768-771). MTT is reduced to red formazan by the mitochondrial dehydrogenase of live cells. The IC50 was determined to each peptide at a IL-15 concentration of 300 pg/mL.

[2] = system: skin graft from a psoriasis patient; assay: Xenotransplant SCID mice model of human psoriasis; type: in vivo; details: 10 mg/kg, alternate days for two weeks; for grade of parakeratosis in the psoriatic lesion / keratinocytes' cycles / number of inflammatory cells / thickness of the epidermis: H & E; for severity of the disease: biopsy one week after last injection
Experimental: Two to three months-old SCID mice were transplanted with a skin graft of 1.5 cm×1.5 cm from a psoriasis patient. Three weeks after, mice were randomized and distributed in three groups: placebo, mice treated with peptide SEQ ID No. 12 at 10 mg/kg of body weight and cyclosporin A at 10 mg/kg in alternate days for two weeks. One week after the last injection, mice were sacrificed and a 4 mm biopsy was taken from each xenotransplant. Biopsies were fixed in formalin for paraffin embedding, and were stained with hematoxilin and eosin dyes (H & E).

[3] = system: synovial fluid cells of RA patients; assay: IL-15-mediated TNFα production in synovial fluid cells of RA patients (ELISA); type: cell-based, human; details: peptide 50 μg/mL plus IL-15 60 ng/mL, 48 h; heading says peptide as a dimer; FIG. 6
Experimental: After obtaining a written informed consent, synovial fluid from RA patients was extracted and incubated with hyaluronidase at 10 μg per mL of fluid for 45 min at 37° C. Synovial fluid cells were obtained after centrifugation at 1200 rpm for 10 min.
Cells were incubated in 96-well plated at 2×10^5 cells per well with 50 μg/mL of peptide and 60 ng/mL of IL-15 and also a combination of peptide plus IL-15. After incubation for 48 h, supernatants were collected and stored at −70° C. until evaluation. The amount of TNFα was quantified by EL ISA (R&D DTA50).

[4] = system: CTLL-2 cell line and peripheral blood mononuclear cells (PBMC); details: CTLL-2 cell line and PBMC; cited from earlier work

## KVTAMKCFLL-NH2 [KVTAMKCFLL, reference compound]
CTLL-2 cell line
  IC50: 130 µM

## KVTAMECFLL
CTLL-2 cell line
  activity relative to the original peptide of WO2006/029578 (fold): ten-fold
  inhibitory effect of the peptide (in words): loss of the inhibitory effect

## IL-15: 14-15 kDa cytokine, T cell activating factor
IL-15Rα subunit
  Kd: 0.01 nM

## KVTAMKAFLL
Human IL-15Rα; ELISA, IL-15 coated plate, IL-15Rα-Fc, FIG. 2
  displacement of binding of IL-15 to IL-15Rα: does not displace
CTLL-2 cell line
  inhibitory effect of the peptide (in words): loss of the inhibitory effect

## KVAAMKCFLL-NH2 [KVAAMKCFLL]
CTLL-2 cell line
  IC50: 130 µM

## KVTAMTCFLL-NH2 [KVTAMTCFLL]
[1]; FIG. 5A
  IL15-Rα-mediated transcription of IL-8: inhibits transcription
[1]; FIG. 5B
  IL15-Rα-mediated transcription of IL-6: inhibits transcription
Human IL-15Rα
  capacity to bind to the IL-15Rα: retains the capacity to bind to the IL-15Rα
KiT225 cell line
  inhibitory effect on IL-15-induced proliferation of Kit225: inhibitory effect depending on the concentration of the peptide
CTLL-2 cell line
  IC50: 24.6 µM
CTLL-2 cell line; listed as Lys-Thr mutant
  activity relative to the original peptide of WO2006/029578 (fold): five-fold
CTLL-2 cell line; fixed peptide concentration 260 μM, IL-15 75, 150, 300 pg/mL, FIG. 4
  antagonistic activity at varying IL-15 concentration: dependence of the antagonistic activity
[2]
  grade of parakeratosis in the psoriatic lesion: lowered grade
  keratinocytes' cycles: significantly decreased
  number of inflammatory cells: significantly decreased
  thickness of the epidermis: significant reduction
  severity of the disease: reduction in the severity of the disease
[3]
  TNFα secretion: inhibits TNFα secretion

## KVTAMKCFAL-NH2 [KVTAMKCFAL]
CTLL-2 cell line
  IC50: 200 µM

## KVTAMKSFLL
CTLL-2 cell line
  inhibitory effect of the peptide (in words): loss of the inhibitory effect

## KATAMKCFLL-NH2 [KATAMKCFLL]
CTLL-2 cell line
  IC50: 130 µM

## CSCC[C@H](NC(=O)[C@H](C)NC(=O)[C@@H](NC(=O)[C@@H](NC(=O)[C@@H](N)CCCCN)C(C)C)[C@@H](C)O)C(=O)N[C@H](C(=O)N[C@@H](CSSC[C@H](NC(=O)[C@@H](NC(=O)[C@H](CCSC)NC(=O)[C@H](C)NC(=O)[C@@H](NC(=O)[C@@H](NC(=O)[C@@H](N)CCCCN)C(C)C)[C@@H](C)O)[C@@H](C)O)C(=O)N[C@@H](Cc1ccccc1)C(=O)N[C@@H](CC(C)C)C(=O)N[C@@H](CC(C)C)C(N)=O)C(=O)N[C@@H](Cc1ccccc1)C(=O)N[C@@H](CC(C)C)C(=O)N[C@@H](CC(C)C)C(N)=O)[C@@H](C)O [SEQ ID No. 12 dimer] (I: H-KVTAMTCFLL-NH2 / II: H-KVTAMTCFLL-NH2; disulfide I:7-II:7 (inferred); N-terminus assumed)
KiT225 cell line
  inhibitory effect on IL-15-induced proliferation of Kit225: higher inhibitory effect
CTLL-2 cell line
  IC50: 8 µM
  activity relative to the original peptide of WO2006/029578 (fold): 15
CTLL-2 cell line; dimer linked through the free Cys
  activity of the dimer relative to the monomer (fold): seven times more active
[2]
  grade of parakeratosis in the psoriatic lesion: lowered grade
  keratinocytes' cycles: significantly decreased
  number of inflammatory cells: significantly decreased
  thickness of the epidermis: significant reduction
  severity of the disease: reduction in the severity of the disease

## KVTAMTCYLL-NH2 [KVTAMTCYLL]
CTLL-2 cell line
  IC50: 57.7 µM

## KVTAMKCFLA-NH2 [KVTAMKCFLA]
CTLL-2 cell line
  IC50: 260 µM

## KVTAAKCFLL-NH2 [KVTAAKCFLL]
CTLL-2 cell line
  IC50: 130 µM

B1: 146B7: Genmab antibody specific for IL-15, targets the region interacting with IL-15Rγ (antibody, chains of the INN, looked up, V domains shown)
VH: EVQLVQSGAEVKKPGESLKISCKVSGYFFTTYWIGWVRQMPGKGLEYMGIIYPGDSDTRYSPSFQGQVTISADKSISTAYLQWSSLKASDTAMYYCARGGNWNCFDYWGQGTLVTVSS
VL: EIVLTQSPGTLSLSPGERATLSCRASQSVSSSYLAWYQQKPGQAPRLLIYGASRRATGIPDRFSGSGSGTDFTLTISRLEPEDFAVYYCQRYGSSHTFGQGTKLEIS
[4]
  inhibition of IL-15-induced cell proliferation: inhibit the IL-15-induced cell proliferation
